Source: patent publication US7479483B2, “Tumor-targeted drug delivery systems and uses thereof” (G. Gaslini Children's Hospital, priority 2003, dated 2009)

System: SH-SY5Y adrenal tumors
Test: In vivo therapeutic studies, orthotopic neuroblastoma xenograft
Design: species or system SCID mice
Settings: orthotopic SH-SY5Y model; free DXR by standard or metronomic dosing
Description: Five-week-old female SCID mice were purchased from Harlan Laboratories (Harlan Italy-S. Pietro al Natisone, UD). Mice (6-8 mice/group) were anaesthetised and injected with the different NB cell lines (2.5×10^6 cells in 20 μl of HEPES buffer), after laparatomy, in the capsule of the left adrenal gland. […] Mice were monitored at least two times weekly for evidence of tumor development, tumor size was quantified, and evidence of tumor-associated morbidity was noted.
2.5×10^6 SH-SY5Y cells were injected orthotopically in the left adrenal gland of mice. […] At various time-points, mice were sacrificed and tumors were measured with calipers. Tumor volumes were calculated by the formula π/6 [w1× (w2)^2], where w1 represented the largest tumor diameter and w2 represented the smallest tumor diameter. The body weight and general physical status of the animals were recorded daily and the mice were terminated when tumor reached 1000-1200 mm^3. […] Weight due to tumor burden was calculated by subtracting the normal wet organ weight from each tumor-bearing organ. In some experiments, mice were monitored routinely for weight loss, and survival times were used as the main criterion for determining treatment efficacy.
The statistical significance of differential findings between experimental groups and controls was determined by Student's t-test and considered significant if two-tailed P values were <0.05. […]

With COc1cccc2c1C(=O)c1c(O)c3c(c(O)c1C2=O)C[C@@](O)(C(=O)CO)C[C@@H]3O[C@H]1C[C@H](N)[C@H](O)[C@H](C)O1 [free DXR, doxorubicin] the therapeutic effect was “lack of therapeutic effect”.
